Source: patent publication US10130617B2, “Chemical compounds” (AstraZeneca AB, priority 2013, dated 2018)

Test system: HCC1428 LTED cells
Test: HCC1428 Long Term Estrogen Deprived (HCC1428 LTED) Xenograft Efficacy Study
Format: in vivo, NSG mice
Settings: 25 mg/kg once daily p.o., after 28 days of dosing
Procedure: HCC1428 Long Term Estrogen Deprived (HCC1428 LTED) Xenograft Efficacy Study
After a suitable period of cell culture, HCC1428 LTED cells (1×10^6) were implanted subcutaneously in the hind flank of female immuno-compromised NSG mice (Jackson Labs, USA) that had undergone overectomy. Tumours were measured twice weekly and changes in tumour volume and growth inhibition were determined by bilateral Vernier calliper measurement (length×width) where length was taken to be the longest diameter across the tumour and width the corresponding perpendicular. Tumour volume was calculated using the formula (length×width)×√(length×width)×(π/6). Tumours were measured once weekly after cell implantation until the average size reached 150 mm^3 at which point the mice were placed into randomised test groups, each group containing 10 mice. Treatment with compounds began the day after (day 62 in this study) and once weekly tumour measurement continued. […] Another group of animals was dosed with vehicle p.o. to act as a control.

C[C@@H]1Cc2c([nH]c3ccccc23)[C@@H](c2c(F)cc(/C=C/C(=O)O)cc2F)N1CC(C)(C)F [Example 1, (E)-3-(3,5-Difluoro-4-((1R,3R)-2-(2-fluoro-2-methylpropyl)-3-methyl-2,3,4,9-tetrahydro-1H-pyrido[3,4-b]indol-1-yl)phenyl)acrylic acid]
decrease in tumour size (geometric mean values, control grew by 220 mm^3): 46 mm^3
inhibition of tumour growth (P<0.001 by unpaired t-test): 121%
